Assay results reported in PubChem BioAssay (NCI).
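Where inhibition never reached the appropriate level, the endpoint shown equals the highest concentration tested. Otherwise, values were interpolated linearly from a five-concentration, 48-hour dose response in 96-well plates. At the TGI there is no net growth.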

Legend:
Test in all cases: DTP human tumour cell line panel, 48 h
786-0 renal = tested on: 786-0 renal
A498 renal = tested on: A498 renal
A549 NSCLC = tested on: A549 NSCLC
ACHN renal = tested on: ACHN renal
BT-549 breast = tested on: BT-549 breast
CAKI-1 renal = tested on: CAKI-1 renal
CCRF-CEM leukemia = tested on: CCRF-CEM leukemia
COLO 205 colon = tested on: COLO 205 colon
DU-145 prostate = tested on: DU-145 prostate
EKVX NSCLC = tested on: EKVX NSCLC
HCC-2998 colon = tested on: HCC-2998 colon
HCT-116 colon = tested on: HCT-116 colon
HCT-15 colon = tested on: HCT-15 colon
HL-60(TB) leukemia = tested on: HL-60(TB) leukemia
HOP-62 NSCLC = tested on: HOP-62 NSCLC
HOP-92 NSCLC = tested on: HOP-92 NSCLC
HS 578T breast = tested on: HS 578T breast
HT29 colon = tested on: HT29 colon
IGROV1 ovarian = tested on: IGROV1 ovarian
K-562 leukemia = tested on: K-562 leukemia
KM12 colon = tested on: KM12 colon
LOX IMVI melanoma = tested on: LOX IMVI melanoma
M14 melanoma = tested on: M14 melanoma
MALME-3M melanoma = tested on: MALME-3M melanoma
MCF7 breast = tested on: MCF7 breast
MDA-MB-231 breast = tested on: MDA-MB-231 breast
MDA-MB-435 = tested on: MDA-MB-435
MDA-N = tested on: MDA-N
MOLT-4 leukemia = tested on: MOLT-4 leukemia
NCI-H226 lung = tested on: NCI-H226 lung
NCI-H23 lung = tested on: NCI-H23 lung
NCI-H460 lung = tested on: NCI-H460 lung
NCI-H522 lung = tested on: NCI-H522 lung
NCI/ADR-RES ovarian = tested on: NCI/ADR-RES ovarian
OVCAR-3 ovarian = tested on: OVCAR-3 ovarian
OVCAR-4 ovarian = tested on: OVCAR-4 ovarian
OVCAR-5 ovarian = tested on: OVCAR-5 ovarian
OVCAR-8 ovarian = tested on: OVCAR-8 ovarian
PC-3 prostate = tested on: PC-3 prostate
RXF 393 renal = tested on: RXF 393 renal
SF-268 CNS = tested on: SF-268 CNS
SF-295 CNS = tested on: SF-295 CNS
SF-539 CNS = tested on: SF-539 CNS
SK-MEL-2 melanoma = tested on: SK-MEL-2 melanoma
SK-MEL-28 melanoma = tested on: SK-MEL-28 melanoma
SK-MEL-5 melanoma = tested on: SK-MEL-5 melanoma
SK-OV-3 ovarian = tested on: SK-OV-3 ovarian
SN12C renal = tested on: SN12C renal
SNB-19 CNS = tested on: SNB-19 CNS
SNB-75 CNS = tested on: SNB-75 CNS
SR leukemia = tested on: SR leukemia
SW-620 colon = tested on: SW-620 colon
TK-10 renal = tested on: TK-10 renal
U251 CNS = tested on: U251 CNS
UACC-62 melanoma = tested on: UACC-62 melanoma
UO-31 renal = tested on: UO-31 renal
RPMI-8226 leukemia = tested on: RPMI-8226 leukemia
T-47D breast = tested on: T-47D breast
UACC-257 melanoma = tested on: UACC-257 melanoma

For `O=C1CCCCC1CN1CCCCC1` (stereo unspecified), the TGI (786-0 renal) was greater than 100 µM, the TGI (A498 renal) was greater than 100 µM and the TGI (A549 NSCLC) was greater than 100 µM. It also gave a TGI (ACHN renal) greater than 100 µM, a TGI (BT-549 breast) greater than 100 µM and a TGI (CAKI-1 renal) greater than 100 µM. The TGI (CCRF-CEM leukemia) was greater than 100 µM, the TGI (COLO 205 colon) was greater than 100 µM and the TGI (DU-145 prostate) was greater than 100 µM. For the same molecule, the TGI (EKVX NSCLC) was greater than 100 µM, the TGI (HCC-2998 colon) was greater than 100 µM and the TGI (HCT-116 colon) was greater than 100 µM. The TGI (HCT-15 colon) was greater than 100 µM, the TGI (HL-60(TB) leukemia) was greater than 100 µM and the TGI (HOP-62 NSCLC) was greater than 100 µM. For the same molecule, the TGI (HOP-92 NSCLC) was greater than 100 µM, the TGI (HS 578T breast) was greater than 100 µM and the TGI (HT29 colon) was greater than 100 µM. For the same molecule, the TGI (IGROV1 ovarian) was greater than 100 µM, the TGI (K-562 leukemia) was greater than 100 µM and the TGI (KM12 colon) was greater than 100 µM. It also gave a TGI (LOX IMVI melanoma) greater than 100 µM, a TGI (M14 melanoma) greater than 100 µM and a TGI (MALME-3M melanoma) greater than 100 µM. The TGI (MCF7 breast) was greater than 100 µM, the TGI (MDA-MB-231 breast) was greater than 100 µM and the TGI (MDA-MB-435) was greater than 100 µM. It also gave a TGI (MDA-N) greater than 100 µM, a TGI (MOLT-4 leukemia) greater than 100 µM and a TGI (NCI-H226 lung) greater than 100 µM. It also gave a TGI (NCI-H23 lung) greater than 100 µM, a TGI (NCI-H460 lung) greater than 100 µM and a TGI (NCI-H522 lung) of 4.42 µM. For the same molecule, the TGI (NCI/ADR-RES ovarian) was greater than 100 µM, the TGI (OVCAR-3 ovarian) was greater than 100 µM and the TGI (OVCAR-4 ovarian) was greater than 100 µM. For the same molecule, the TGI (OVCAR-5 ovarian) was greater than 100 µM, the TGI (OVCAR-8 ovarian) was greater than 100 µM and the TGI (PC-3 prostate) was greater than 100 µM. The TGI (RXF 393 renal) was greater than 100 µM, the TGI (SF-268 CNS) was greater than 100 µM and the TGI (SF-295 CNS) was greater than 100 µM. The TGI (SF-539 CNS) was greater than 100 µM, the TGI (SK-MEL-2 melanoma) was greater than 100 µM and the TGI (SK-MEL-28 melanoma) was greater than 100 µM. It also gave a TGI (SK-MEL-5 melanoma) greater than 100 µM, a TGI (SK-OV-3 ovarian) greater than 100 µM and a TGI (SN12C renal) greater than 100 µM. It also gave a TGI (SNB-19 CNS) greater than 100 µM, a TGI (SNB-75 CNS) greater than 100 µM and a TGI (SR leukemia) greater than 100 µM. The TGI (SW-620 colon) was greater than 100 µM, the TGI (TK-10 renal) was greater than 100 µM and the TGI (U251 CNS) was greater than 100 µM. The TGI (UACC-62 melanoma) was greater than 100 µM and the TGI (UO-31 renal) was greater than 100 µM.
Molecule `C#CCn1c(=O)c2ccccc2n(CC#C)c1=O` has a TGI (786-0 renal) greater than 10 µM, a TGI (A498 renal) greater than 10 µM and a TGI (A549 NSCLC) greater than 10 µM. It also gave a TGI (ACHN renal) greater than 10 µM, a TGI (CAKI-1 renal) greater than 10 µM and a TGI (CCRF-CEM leukemia) greater than 10 µM. For the same molecule, the TGI (COLO 205 colon) was greater than 10 µM, the TGI (DU-145 prostate) was greater than 10 µM and the TGI (EKVX NSCLC) was greater than 10 µM. It also gave a TGI (HCC-2998 colon) greater than 10 µM, a TGI (HCT-116 colon) greater than 10 µM and a TGI (HCT-15 colon) greater than 10 µM. It also gave a TGI (HOP-62 NSCLC) greater than 10 µM, a TGI (HOP-92 NSCLC) greater than 10 µM and a TGI (HS 578T breast) greater than 10 µM. It also gave a TGI (HT29 colon) greater than 10 µM, a TGI (IGROV1 ovarian) greater than 10 µM and a TGI (K-562 leukemia) greater than 10 µM. For the same molecule, the TGI (KM12 colon) was greater than 10 µM, the TGI (LOX IMVI melanoma) was greater than 10 µM and the TGI (M14 melanoma) was greater than 10 µM. The TGI (MALME-3M melanoma) was greater than 10 µM, the TGI (MCF7 breast) was greater than 10 µM and the TGI (MDA-MB-231 breast) was greater than 10 µM. The TGI (MDA-MB-435) was greater than 10 µM, the TGI (MDA-N) was greater than 10 µM and the TGI (MOLT-4 leukemia) was greater than 10 µM. It also gave a TGI (NCI-H226 lung) greater than 10 µM, a TGI (NCI-H23 lung) greater than 10 µM and a TGI (NCI-H460 lung) greater than 10 µM. The TGI (NCI-H522 lung) was greater than 10 µM, the TGI (NCI/ADR-RES ovarian) was greater than 10 µM and the TGI (OVCAR-3 ovarian) was greater than 10 µM. It also gave a TGI (OVCAR-4 ovarian) greater than 10 µM, a TGI (OVCAR-5 ovarian) greater than 10 µM and a TGI (OVCAR-8 ovarian) greater than 10 µM. For the same molecule, the TGI (PC-3 prostate) was greater than 10 µM, the TGI (RPMI-8226 leukemia) was greater than 10 µM and the TGI (RXF 393 renal) was greater than 10 µM. For the same molecule, the TGI (SF-268 CNS) was greater than 10 µM, the TGI (SF-295 CNS) was greater than 10 µM and the TGI (SF-539 CNS) was greater than 10 µM. The TGI (SK-MEL-2 melanoma) was greater than 10 µM, the TGI (SK-MEL-28 melanoma) was greater than 10 µM and the TGI (SK-MEL-5 melanoma) was greater than 10 µM. It also gave a TGI (SK-OV-3 ovarian) greater than 10 µM, a TGI (SN12C renal) greater than 10 µM and a TGI (SNB-19 CNS) greater than 10 µM. For the same molecule, the TGI (SNB-75 CNS) was greater than 10 µM, the TGI (SW-620 colon) was greater than 10 µM and the TGI (T-47D breast) was greater than 10 µM. It also gave a TGI (TK-10 renal) greater than 10 µM, a TGI (U251 CNS) greater than 10 µM and a TGI (UACC-257 melanoma) greater than 10 µM. For the same molecule, the TGI (UO-31 renal) was greater than 10 µM.
